Experimental data reported in ChEMBL document CHEMBL3885861, “Open TG-GATES”.

Species: Rattus norvegicus
Test: Open TG-GATES - Regimen: Daily Repeat
Format: toxicity, organism-based, Sprague-Dawley
Set-up: regimen Daily Repeat, gender Male, age 6 weeks
Details: in vivo, po, 300 mg/kg, route gavage, dose level Middle; for APTT / Bas / Eos / Fbg / Hb / Ht / Lym / MCH / MCHC / MCV / Mono / Neu / PT / Plat / RBC / Ret / WBC: tissue Blood; for KIDNEY_L / KIDNEY_R / KIDNEY_TOTAL: tissue Kidney; for LIVER: tissue Liver; for A/G / ALP / ALT / AST / BUN / CRE / Ca / Cl / DBIL / GLC / IP / K / LDH / Na / PL / RALB / TBIL / TC / TG / TP / gamma-GTP: tissue Plasma

O=C(N[C@H](CO)[C@H](O)c1ccc([N+](=O)[O-])cc1)C(Cl)Cl [CHLORAMPHENICOL]
TERMINAL_BW (72 h, time 3 day): 251.2 g
APTT (72 h, time 3 day): 16.2 s
Bas (72 h, time 3 day): 0%
Eos (72 h, time 3 day): 1%
Fbg (72 h, time 3 day): 294.6 mg/dL
Hb (72 h, time 3 day): 13.3 g/dL
Ht (72 h, time 3 day): 40.8%
Lym (72 h, time 3 day): 83.4%
MCH (72 h, time 3 day): 21.2 pg
MCHC (72 h, time 3 day): 32.6%
MCV (72 h, time 3 day): 65.1 fL
Mono (72 h, time 3 day): 3.4%
Neu (72 h, time 3 day): 11.6%
PT (72 h, time 3 day): 14.4 s
Plat (72 h, time 3 day): 128.6 x10_4/uL
RBC (72 h, time 3 day): 627.6 x10_4/ul
Ret (72 h, time 3 day): 4.4%
WBC (72 h, time 3 day): 77.4 x10_2/uL
KIDNEY_L (72 h, time 3 day): 1.1 g
KIDNEY_R (72 h, time 3 day): 1.1 g
KIDNEY_TOTAL (72 h, time 3 day): 2.1 g
LIVER (72 h, time 3 day): 12.1 g
A/G (72 h, time 3 day): 0.9
ALP (72 h, time 3 day): 1601.8 IU/L
ALT (72 h, time 3 day): 49.4 IU/L
AST (72 h, time 3 day): 72.8 IU/L
BUN (72 h, time 3 day): 16.6 mg/dL
CRE (72 h, time 3 day): 0.2 mg/dL
Ca (72 h, time 3 day): 10.9 mg/dL
Cl (72 h, time 3 day): 105.6 meq/L
DBIL (72 h, time 3 day): 0.01 mg/dL
GLC (72 h, time 3 day): 169.2 mg/dL
IP (72 h, time 3 day): 7.6 mg/dL
K (72 h, time 3 day): 4.2 meq/L
LDH (72 h, time 3 day): 84.2 IU/L
Na (72 h, time 3 day): 141.2 meq/L
PL (72 h, time 3 day): 150.4 mg/dL
RALB (72 h, time 3 day): 2.6 g/dL
TBIL (72 h, time 3 day): 0.052 mg/dL
TC (72 h, time 3 day): 88.4 mg/dL
TG (72 h, time 3 day): 66.6 mg/dL
TP (72 h, time 3 day): 5.6 g/dL
gamma-GTP (72 h, time 3 day): 1 IU/L
TERMINAL_BW ([…], time 7 day): 277.3 g
TERMINAL_BW ([…], time 14 day): 349.1 g
TERMINAL_BW ([…], time 28 day): 411.6 g
APTT ([…], time 7 day): 16.9 s
Bas ([…], time 7 day): 0%
Eos ([…], time 7 day): 1%
Fbg ([…], time 7 day): 324 mg/dL
Hb ([…], time 7 day): 13.7 g/dL
Ht ([…], time 7 day): 42.3%
Lym ([…], time 7 day): 78.2%
MCH ([…], time 7 day): 20.5 pg
MCHC ([…], time 7 day): 32.4%
MCV ([…], time 7 day): 63.3 fL
Mono ([…], time 7 day): 3.6%
Neu ([…], time 7 day): 17%
PT ([…], time 7 day): 14.5 s
Plat ([…], time 7 day): 120.6 x10_4/uL
RBC ([…], time 7 day): 668.6 x10_4/ul
Ret ([…], time 7 day): 4.8%
WBC ([…], time 7 day): 66.9 x10_2/uL
APTT ([…], time 14 day): 14.9 s
Bas ([…], time 14 day): 0%
Eos ([…], time 14 day): 1.4%
Fbg ([…], time 14 day): 307 mg/dL
Hb ([…], time 14 day): 14.2 g/dL
Ht ([…], time 14 day): 43.7%
Lym ([…], time 14 day): 84.8%
MCH ([…], time 14 day): 20.5 pg
MCHC ([…], time 14 day): 32.5%
MCV ([…], time 14 day): 63.1 fL
Mono ([…], time 14 day): 2.2%
Neu ([…], time 14 day): 11.4%
PT ([…], time 14 day): 14.8 s
Plat ([…], time 14 day): 123.5 x10_4/uL
RBC ([…], time 14 day): 692.8 x10_4/ul
Ret ([…], time 14 day): 4.7%
WBC ([…], time 14 day): 80 x10_2/uL
APTT ([…], time 28 day): 15.7 s
Bas ([…], time 28 day): 0%
Eos ([…], time 28 day): 1.2%
Fbg ([…], time 28 day): 296.2 mg/dL
Hb ([…], time 28 day): 15.1 g/dL
Ht ([…], time 28 day): 44.3%
Lym ([…], time 28 day): 86.8%
MCH ([…], time 28 day): 19.7 pg
MCHC ([…], time 28 day): 34.1%
MCV ([…], time 28 day): 57.8 fL
Mono ([…], time 28 day): 1%
Neu ([…], time 28 day): 10%
PT ([…], time 28 day): 14.7 s
Plat ([…], time 28 day): 110.4 x10_4/uL
RBC ([…], time 28 day): 768.8 x10_4/ul
Ret ([…], time 28 day): 2.1%
WBC ([…], time 28 day): 69.9 x10_2/uL
KIDNEY_L ([…], time 7 day): 1.2 g
KIDNEY_R ([…], time 7 day): 1.2 g
KIDNEY_TOTAL ([…], time 7 day): 2.4 g
KIDNEY_L ([…], time 14 day): 1.3 g
KIDNEY_R ([…], time 14 day): 1.3 g
KIDNEY_TOTAL ([…], time 14 day): 2.6 g
KIDNEY_L ([…], time 28 day): 1.6 g
KIDNEY_R ([…], time 28 day): 1.5 g
KIDNEY_TOTAL ([…], time 28 day): 3.1 g
LIVER ([…], time 7 day): 14 g
LIVER ([…], time 14 day): 16.9 g
LIVER ([…], time 28 day): 18.5 g
A/G ([…], time 7 day): 0.9
ALP ([…], time 7 day): 1464.2 IU/L
ALT ([…], time 7 day): 56.8 IU/L
AST ([…], time 7 day): 72.8 IU/L
BUN ([…], time 7 day): 15 mg/dL
CRE ([…], time 7 day): 0.2 mg/dL
Ca ([…], time 7 day): 11.3 mg/dL
Cl ([…], time 7 day): 106 meq/L
DBIL ([…], time 7 day): 0.02 mg/dL
GLC ([…], time 7 day): 181.2 mg/dL
IP ([…], time 7 day): 7.9 mg/dL
K ([…], time 7 day): 4 meq/L
LDH ([…], time 7 day): 58.4 IU/L
Na ([…], time 7 day): 144.8 meq/L
PL ([…], time 7 day): 148.8 mg/dL
RALB ([…], time 7 day): 2.7 g/dL
TBIL ([…], time 7 day): 0.054 mg/dL
TC ([…], time 7 day): 74 mg/dL
TG ([…], time 7 day): 102.4 mg/dL
TP ([…], time 7 day): 5.7 g/dL
gamma-GTP ([…], time 7 day): 1 IU/L
A/G ([…], time 14 day): 0.8
ALP ([…], time 14 day): 1504.6 IU/L
ALT ([…], time 14 day): 51.8 IU/L
AST ([…], time 14 day): 75.2 IU/L
BUN ([…], time 14 day): 17.4 mg/dL
CRE ([…], time 14 day): 0.2 mg/dL
Ca ([…], time 14 day): 11.3 mg/dL
Cl ([…], time 14 day): 105.2 meq/L
DBIL ([…], time 14 day): 0.024 mg/dL
GLC ([…], time 14 day): 198.2 mg/dL
IP ([…], time 14 day): 7.1 mg/dL
K ([…], time 14 day): 4 meq/L
LDH ([…], time 14 day): 66.8 IU/L
Na ([…], time 14 day): 144 meq/L
PL ([…], time 14 day): 137.6 mg/dL
RALB ([…], time 14 day): 2.6 g/dL
TBIL ([…], time 14 day): 0.052 mg/dL
TC ([…], time 14 day): 63.4 mg/dL
TG ([…], time 14 day): 93.6 mg/dL
TP ([…], time 14 day): 5.8 g/dL
gamma-GTP ([…], time 14 day): 1 IU/L
A/G ([…], time 28 day): 0.8
ALP ([…], time 28 day): 1176.8 IU/L
ALT ([…], time 28 day): 43 IU/L
AST ([…], time 28 day): 63.8 IU/L
BUN ([…], time 28 day): 15 mg/dL
CRE ([…], time 28 day): 0.2 mg/dL
Ca ([…], time 28 day): 10.8 mg/dL
Cl ([…], time 28 day): 105 meq/L
DBIL ([…], time 28 day): 0.024 mg/dL
GLC ([…], time 28 day): 172.8 mg/dL
IP ([…], time 28 day): 6.5 mg/dL
K ([…], time 28 day): 3.5 meq/L
LDH ([…], time 28 day): 49.2 IU/L
Na ([…], time 28 day): 144.6 meq/L
PL ([…], time 28 day): 141 mg/dL
RALB ([…], time 28 day): 2.8 g/dL
TBIL ([…], time 28 day): 0.064 mg/dL
TC ([…], time 28 day): 68 mg/dL
TG ([…], time 28 day): 69.4 mg/dL
TP ([…], time 28 day): 6.1 g/dL
gamma-GTP ([…], time 28 day): 1.2 IU/L
